Results: PMC8398472, “Anticancer Diiron Vinyliminium Complexes: A Structure–Activity Relationship Study” (Pharmaceutics, 2021)
“Also recorded” adds a separate entry of the source.

Columns and labels:
[1] = Stability in DMSO-d6/D2O or D2O solution at 37 °C for 72 h (1H NMR); format: physicochemical; conditions: DMSO-d6/D2O (2:1 v/v), 72 h at 37 °C
Procedure: • (a) Solubility in D2O. A suspension of the selected diiron compound (3–5 mg) in a D2O solution (ca. 1 mL) containing Me2SO2 (3.36 × 10^−3 M) as internal standard was vigorously stirred at 21 °C for 1.5 h. The resulting saturated solution was filtered over celite, transferred into an NMR tube and then analyzed by ^1H NMR spectroscopy (delay time = 3 s; number of scans = 20). The concentration (solubility) was calculated by the relative integral (related to Cp and/or NMe signals) with respect to Me2SO2 (δ = 3.14 ppm). • (b) Stability in DMSO-d6/D2O solution. The selected diiron compound (ca. 4 mg) was added of 1 mL of D2O (3a,c) or DMSO-d6/D2O (2:1 v/v) mixture (2a,c, 3b, 4a–c, 5a–c, 6a–c, 7), containing Me2SO2 (3.36 × 10^−3 M). The resulting mixture was stirred for 30 min and then filtered over celite; the filtrated solution was transferred into an NMR tube. The sample was analyzed by ^1H NMR (time = 0) and then heated at 37 °C for 72 h. After cooling to room temperature, the solution was separated from a small amount of solid by filtration over celite, and the new ^1H NMR spectrum was recorded (delay time = 3 s; number of scans = 20). In every case, no newly formed organometallic species was detected. The amount of starting material in solution (% with respect to the initial spectrum) was calculated by the relative integral (vs. Cp and/or NMe signals) with respect to Me2SO2 as internal standard.

[2] = Octanol–water partition coefficient (shake-flask, UV–Vis); format: physicochemical; conditions: 21 °C
Procedure: • (c) Octanol–water partition coefficients (Log Pow). Partition coefficients (Pow; IUPAC: KD partition constant), defined as Pow = corg/caq, where corg and caq are molar concentrations of the selected compound in the organic and aqueous phase, respectively, were determined by the shake-flask method and UV–Vis measurements. Deionized water and 1-octanol were vigorously stirred for 24 h to enable saturation of both phases, then separated by centrifugation. A stock solution of the selected diiron compound (ca. 2 mg; 2a–c, 3b, 4a–c, 5a, 5c, 6b,c, 7) was prepared by first adding acetone (50 μL, to help solubilization), followed by water-saturated octanol (2.5 mL). The solution was diluted with water-saturated octanol (ca. 1:3 v/v ratio, cFe2 ≈ 10^−4 M, so that 1.5 ≤ A ≤ 2.0 at λmax) and the UV–Vis spectrum was recorded (A^0org). An aliquot of the solution (Vorg = 1.2 mL) was transferred into a test tube and octanol-saturated water (Vorg = Vaq = 1.2 mL) was added. The mixture was vigorously stirred for 15 min at 21 °C and then centrifuged (5000 rpm, 10 min). The UV–Vis spectrum of the organic phase was recorded (A^forg) and the partition coefficient was calculated as Pow = A^forg/(A^0org − A^forg), where A^0org and A^forg are the absorbance in the organic phase before and after partition with the aqueous phase, respectively. An inverse procedure was followed for 3a, 3c, 5b and 6a, starting from a solution of the compound in octanol-saturated water. The partition coefficient was calculated as Pow = (A^0aq − A^faq)/A^faq where A^0aq and A^faq are the absorbance in the aqueous phase before and after partition with the organic phase, respectively. The wavelength of the maximum absorption of each compound (ca. 300 nm) was used for UV–Vis quantitation. The procedure was repeated three times for each sample (from the same stock solution); results are given as mean ± standard deviation.

A2780 cells = assay: Intracellular ROS production, DCFH-DA assay; format: cell-based, human; conditions: 20 μM, up to 24 h, DCFH-DA fluorescence
Procedure: The intracellular production of reactive oxygen species (ROS) upon treatment of the compounds 3b, 4a, 4c, 5b and 6c was measured by using the DCFH-DA (2′,7′-dichlorodihydrofluorescein diacetate, Merck) assay, based on cellular uptake of the non-fluorescent diacetate following deacetylation by esterases (2′,7′-dichlorodihydrofluorescein, DCFH) and oxidation to the fluorescent dichlorofluorescein (2′,7′-dichlorofluorescein, DCF). A2780 cells were seeded at concentration of 4 × 10^4 cells/well/90 µL of complete growth medium into 96-well plates. After overnight incubation, the cells were treated following manufacturer protocol. 100 µL of a solution containing the fluorogenic probe were added to the culture medium and, after 1 h of incubation with 5% CO2 at 37 °C, the cells were exposed to a final concentration of 20 µM of the tested complexes; H2O2 100 µM was used as a positive control. Stock solutions of compounds were prepared as described above; cells incubated with equal amounts of DMSO in supplemented RPMI were used as control. The fluorescence was measured up to 24 h with an excitation wavelength of 485 nm and with a 535 nm emission filter by Multilabel Counter (PerkinElmer). For each tested compound, assay was performed on triplicate. The data were reported as mean ± standard deviation, statistical differences were analyzed using one-way analysis of variance (ANOVA) and a Tukey test was used for post hoc analysis. A p-value < 0.05 is considered statistically significant.

Stability % (residual % of starting material) [1] | Log Pow [2] | Substance | Intracellular ROS production (A2780 cells)
87% | 0.56 ± 0.08 | [Fe2Cp2(CO)(μ-CO){μ-η^1:η^3-C^3(Me)C^2(Me)C^1N(CH2Ph)2}]CF3SO3 [Compound 2c] | 
66% | 0.38 ± 0.02 | [Fe2Cp2(CO)(μ-CO){μ-η^1:η^3-C^3(Me)C^2(Me)C^1NMe(2-naphthyl)}]CF3SO3 [Compound 7] | 
86% | −0.21 ± 0.01 | [Fe2Cp2(CO)(μ-CO){μ-η^1:η^3-C^3(Me)C^2(Me)C^1NMe(4-C6H4OMe)}]CF3SO3 [Compound 6c] | appreciable ROS production
90% | −0.43 ± 0.01 | [Fe2Cp2(CO)(μ-CO){μ-η^1:η^3-C^3(Me)C^2(Me)C^1NMe(CH2Ph)}]CF3SO3 [Compound 5b] | appreciable ROS production; also recorded: most effective of the series
95% | −0.17 ± 0.01 | [Fe2Cp2(CO)(μ-CO){μ-η^1:η^3-C^3(Me)C^2(Me)C^1NMe(Cy)}]CF3SO3 [Compound 4c] | appreciable ROS production
95% | −0.29 ± 0.03 | [Fe2Cp2(CO)(μ-CO){μ-η^1:η^3-C^3(Me)C^2HC^1NMe(Cy)}]CF3SO3 [Compound 4a] | appreciable ROS production
76% | 0.37 ± 0.04 | [Fe2Cp2(CO)(μ-CO){μ-η^1:η^3-C^3(Ph)C^2HC^1NMe(4-C6H4OMe)}]CF3SO3 [Compound 6b] | 
68% | −0.09 ± 0.01 | [Fe2Cp2(CO)(μ-CO){μ-η^1:η^3-C^3(Ph)C^2HC^1NMe(CH2CH = CH2)}]CF3SO3 [Compound 3b] | appreciable ROS production
